Data: ChEMBL document CHEMBL1201862, “PubChem BioAssay data set” (2004)
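Following 48 hours of exposure in 96-well plates, responses at five concentrations were used to interpolate endpoints linearly. GI50 = concentration required for 50% inhibition of growth.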 Activity calls are given as the source filed them. No stated cut-off is given here; in the data, active = GI50 up to about 1.1 µM and inactive = higher.

What was measured:
Experiment in all cases: NCI-60 cell line screen, 48 h
[1] = system: OVCAR-5
[2] = system: MDA-MB-231
[3] = system: SK-OV-3
[4] = system: PC-3
[5] = system: HOP-92
[6] = system: MDA-MB-435
[7] = system: SF-539
[8] = system: HCT-15
[9] = system: DU-145
[10] = system: OVCAR-8
[11] = system: HCC 2998
[12] = system: IGROV-1
[13] = system: MOLT-4
[14] = system: ACHN
[15] = system: 786-0
[16] = system: CAKI-1
[17] = system: MDA-N
[18] = system: UACC-257
[19] = system: SF-268
[20] = system: NCI-H522

SMILES | GI50 [1] | GI50 [2] | GI50 [3] | GI50 [4] | GI50 [5] | GI50 [6] | GI50 [7] | GI50 [8] [µM] | GI50 [9] | GI50 [10] | GI50 [11] | GI50 [12] | GI50 [13] | GI50 [14] | GI50 [15] | GI50 [16] | GI50 [17] | GI50 [18] | GI50 [19] | GI50 [20]
O=[N+]([O-])c1cc(Cl)cnc1Br | 3.27 µM (inactive) | 3.45 µM (inactive) | 10.3 µM (inactive) | 7.53 µM (inactive) | 8.75 µM (inactive) | 2.23 µM (inactive) | 2.05 µM (inactive) | 2.25 | 3.71 µM (inactive) | 2.12 µM (inactive) | 1.37 µM (inactive) | 2.22 µM (inactive) | 1.25 µM (inactive) | 2.09 µM (inactive) | 5.83 µM (inactive) | 1.86 µM (inactive) | 3.33 µM (inactive) | 9.48 µM (inactive) | 2.64 µM (inactive) | 
Cc1ccc(S(=O)(=O)N2CCNCCN(S(=O)(=O)c3ccc(C)cc3)CCNCC2)cc1 | 43.4 µM (inactive) | 23.7 µM (inactive) | 20.4 µM (inactive) |  | 18.7 µM (inactive) | 18.1 µM (inactive) | 19.1 µM (inactive) | 32.9 | 19.5 µM (inactive) | 19.2 µM (inactive) | 15.7 µM (inactive) | 19.7 µM (inactive) |  | 28.9 µM (inactive) | 18.7 µM (inactive) | 27.6 µM (inactive) | 20.2 µM (inactive) | 16.4 µM (inactive) | 21.8 µM (inactive) | 16.6 µM (inactive)
O=[N+]([O-])c1ccccc1S(=O)(=O)c1cccc2c1NCCC2 | > 100 µM (inactive) | > 100 µM (inactive) | 68.4 µM (inactive) | 27.9 µM (inactive) | 32.7 µM (inactive) | 27.7 µM (inactive) | > 100 µM (inactive) | 35 | 60.5 µM (inactive) | 69.3 µM (inactive) | 56.8 µM (inactive) | 34.3 µM (inactive) | 21.5 µM (inactive) | 55.8 µM (inactive) | > 100 µM (inactive) | 63.5 µM (inactive) | 28.1 µM (inactive) | 18 µM (inactive) | > 100 µM (inactive) | 
CCOc1c2c(cc3c1C(=O)c1c(OC)cccc1C3=O)C=C(OC)CC2 | > 25 µM (inactive) | > 25 µM (inactive) | > 25 µM (inactive) | 17.8 µM (inactive) | > 25 µM (inactive) | 8.04 µM (inactive) | > 25 µM (inactive) | 11.9 | > 25 µM (inactive) | > 25 µM (inactive) |  | 15.2 µM (inactive) | 8.71 µM (inactive) | > 25 µM (inactive) | > 25 µM (inactive) | > 25 µM (inactive) | 6.49 µM (inactive) | > 25 µM (inactive) | > 25 µM (inactive) | 10.4 µM (inactive)
O=C(Nc1ccccn1)/C(=C\C(=O)c1ccc(Cl)cc1)Nc1ccccc1 |  | > 10 µM (inactive) | > 10 µM (inactive) | > 10 µM (inactive) | > 10 µM (inactive) | > 10 µM (inactive) |  | > 10 | > 10 µM (inactive) | > 10 µM (inactive) | > 10 µM (inactive) | > 10 µM (inactive) | > 10 µM (inactive) |  | 7.16 µM (inactive) | > 10 µM (inactive) | > 10 µM (inactive) | > 10 µM (inactive) | > 10 µM (inactive) | 
N#CC(C#N)/N=N/c1ccc(-c2nc3ccccc3[nH]2)cc1 | > 100 µM (inactive) | 13.7 µM (inactive) | > 100 µM (inactive) | 15.8 µM (inactive) | 22.5 µM (inactive) | 18 µM (inactive) | 15.9 µM (inactive) | 21.7 | 16.4 µM (inactive) | 23.1 µM (inactive) |  | 16.8 µM (inactive) | 10.9 µM (inactive) | 13.7 µM (inactive) | 21.2 µM (inactive) | 24.5 µM (inactive) | 20 µM (inactive) | 14.9 µM (inactive) | 28.2 µM (inactive) | 2.81 µM (inactive)
O=C(O)C1CC2(C1)CC(C(=O)O)C2 (stereo not given) | > 100 µM (inactive) | > 100 µM (inactive) | > 100 µM (inactive) | > 100 µM (inactive) |  | > 100 µM (inactive) | > 100 µM (inactive) | > 100 | > 100 µM (inactive) |  | > 100 µM (inactive) | > 100 µM (inactive) | > 100 µM (inactive) | > 100 µM (inactive) | > 100 µM (inactive) | > 100 µM (inactive) | > 100 µM (inactive) | > 100 µM (inactive) |  | > 100 µM (inactive)
C[C@@H]1C(=O)CC2(O)[C@@]13C[C@@H](OC(=O)[C@@H]3O)[C@@H](C)[C@@]21COC1=O (stereo not given in full) | > 100 µM (inactive) | > 100 µM (inactive) | > 100 µM (inactive) | > 100 µM (inactive) |  | > 100 µM (inactive) | > 100 µM (inactive) | > 100 | > 100 µM (inactive) | > 100 µM (inactive) | > 100 µM (inactive) | > 100 µM (inactive) | > 100 µM (inactive) | > 100 µM (inactive) | > 100 µM (inactive) |  | > 100 µM (inactive) | > 100 µM (inactive) | > 100 µM (inactive) | > 100 µM (inactive)
